Reference: PMC11980376, “Lactate dehydrogenase is the Achilles’ heel of Lyme disease bacterium Borreliella burgdorferi” (mBio, 2025)

Legend:
BbLDH [1] = target: T1, BbLDH (Borreliella burgdorferi, UniProt O51114); test: Small compound library screening (Natural Products Set IV) for inhibition of BbLDH activity; assay type: biochemical; settings: Extended Data Fig. 7A
T1 construct: we expressed and purified a full-length N-terminal His- and FLAG-tagged BB_0087 recombinant protein (rBB_0087); 10xHis (N); FLAG (N); made in house; host or cells: E. coli Rosetta-gami 2 (DE3)
Protocol: To identify potential novel LDH inhibitors against BbLDH, the Natural Products Set IV library containing 419 natural compounds selected from the DTP Open Repository collection was obtained from the National Cancer Institute (NCI). All compounds were dissolved in DMSO to a working stock solution of 10 mM. Primary screening was performed using a label-free HTS protocol ([54]) in 384-well plates. Buffer B (20 mM Tris pH 7.4, 0.005% Triton X-100, 0.005% BGG, 2 mM DTT) containing 10 nM BbLDH, 75 µM pyruvate, and 50 µM NADH was dispensed into each well containing pre-dispensed inhibitors to a final concentration of 10 µM in 50 µL working volume per well. Fluorescence was measured using an excitation wavelength of 340 nm and an emission wavelength of 482 nm. Readings were recorded every second over a total duration of 5 min. Gossypol and DMSO were included as positive and negative controls, respectively. Fluorescent signals were plotted over time for each compound and analyzed using linear regression to determine the slope of reduction compared to DMSO and gossypol. Twenty-three compounds with a reduced slope in comparison to DMSO were selected for a second round of screening.
For the secondary screening, a lactate dehydrogenase activity assay kit (Sigma Aldrich) was used to determine the inhibitory effect of selected small compounds on BbLDH activity. Reactions were performed following the manufacturer’s protocol using 10 and 25 µM of small compounds and 10 nM BbLDH per well. Gossypol and DMSO were included as positive and negative controls, respectively. Compounds that reduced the LDH activity of BbLDH compared to DMSO treatment wells were selected for further analysis.

BbLDH [2] = target: T1, BbLDH; test: Enzyme kinetics of inhibition with varying pyruvate as substrate, 0–100 µM inhibitor; assay type: biochemical; settings: for type of inhibition for pyruvate substrate (Lineweaver–Burk plots): Fig. S7
Protocol: The inhibitory effect of gossypol and the four lead inhibitors of BbLDH was performed using 0–100 µM of inhibitors or an equal volume of DMSO vehicle in 50 mM Tris-HCl buffer (pH 7.0) containing 100 ng of BbLDH, 0.5 mM NADH, 2.4 mM pyruvate, and 3 mM FBP at 37°C. All experiments were repeated at least twice. The amount of NADH produced or consumed was extrapolated from the NADH standard curve and plotted in GraphPad Prism 10 (GraphPad Software, La Jolla, CA, USA) using Allosteric Sigmoidal mode to obtain the Vmax and Km values. Lineweaver–Burk plots were generated using the mean reciprocal values of substrates and velocities obtained from the inhibition studies.

HeLa cells = test: Cell viability, crystal violet assay, 72 h; assay type: cell-based, human
Protocol: (§1) Immortalized cervical carcinoma cells (HeLa) and TIGKs were purchased from ATCC. HeLa cells were cultured and maintained in Dulbecco’s Modified Eagle Medium with high glucose and supplemented with 10% FBS and 100 µg/mL of penicillin and streptomycin. TIGK cells were cultured in a serum-free keratinocyte growth medium (KGM; Lifeline Cell Technology, MD) as described previously ([56]). Cells were incubated at 37°C, 5% CO2 incubator.
(§2) To determine the toxicity of LDH inhibitors on eukaryotic cells, HeLa and TIGK cells were seeded onto a 96-well plate at 10^4 cells per well the day before drug treatment. Cell culture media were removed the next day and replaced with culture media containing the specified concentration of DMSO, gossypol, 45923, or 350085. Mock-treated wells were included for cell viability normalization purposes. Cells were incubated with inhibitors for 72 h. To determine the cell viability, the crystal violet assay was used as described ([57]). Briefly, cell culture media were decanted from the 96-well plate and washed once with water. A volume of 50 µL of 0.5% crystal violet staining solution (0.5 g crystal violet powder, 80 mL ddH2O, 20 mL methanol) were incubated for 20 min at room temperature (RT) with gentle shaking. Plates were washed 4–5 times by soaking in ddH2O followed by gentle tapping to remove any remaining liquid. Plates were air-dried at RT. A 200 µL of methanol was added to each well. The resulting plates were incubated for 20 min at RT with gentle shaking followed by optical density measurement at 570 nm (OD570) using a Varioskan LUX multimode microplate reader (Thermo Fisher Scientific). The OD570 of mock cells was set to 100% and the percentage of viable cells treated with inhibitors was determined by comparing the average OD570 values of treated wells to mock wells. The experiment was performed in triplicate wells with two technical replicates and two biological replicates. Two-way analysis of variance was used for statistical analysis with significant values of P < 0.05.

[3] = tested on: telomerase immortalized gingival keratinocytes (TIGKs); test: Cell viability, crystal violet assay, 72 h; assay type: cell-based, human
Protocol: as §1, §2

B. burgdorferi = test: In vitro growth analysis of wild-type B. burgdorferi with inhibitors, Petroff-Hausser counting; assay type: cell-based, Borreliella burgdorferi; settings: 0–300 µM tested, BSK-II medium, 34°C
Protocol: To measure the growth of the WT B31 A3-68 and 87^mut, 87^mut was first cultivated in the presence of 1 mM IPTG until the stationary phase along with the WT. Cells were harvested via centrifugation and washed with PBS to remove all traces of IPTG. A concentration of 1 × 10^5 cells/mL of WT or 87^mut were inoculated into 10 mL of fresh BSK-II and incubated at 34°C with or without 1 mM IPTG. Bacterial cells were enumerated daily until the cells entered the stationary growth phase (~1 × 10^8 cells/mL) using a Petroff-Hausser counting chamber, as previously described ([100]). At the end of the growth study, cultures were harvested for immunoblot analysis to detect the expression of BbLDH. Growth analyses were repeated in triplicates, and the results were expressed as the means ± standard errors of the means (SEM). To determine the growth inhibition of LDH inhibitors on B. burgdorferi, 10^5 cells/mL of stationary WT cultures were inoculated into a fresh 5 mL BSK-II medium containing the specified concentration of inhibitors. Equal volumes of DMSO were included as negative controls to rule out the inhibitory effect of DMSO on the growth of B. burgdorferi. Cells were maintained at 34°C with a 3.4% CO2 incubator, and cell numbers were enumerated every 2 days until the cells reached the stationary growth phase using the Petroff-Hausser counting chamber.

BbLDH [4] = target: T1, BbLDH; test: Enzyme kinetics of inhibition, lactate to pyruvate reaction, NADH read at OD340; assay type: biochemical; settings: Fig. 1F
Protocol: The enzyme kinetics of BbLDH, with substrates pyruvate or lactate, was monitored by the reduction or oxidation of NADH at OD340 as previously described ([92]) using a Varioskan LUX multimode microplate reader (Thermo Fisher Scientific, Rockford, IL) with minor modifications. Briefly, the conversion of pyruvate to lactate activity was performed at 37°C in 50 mM Tris-HCl buffer pH 7.0 containing 100 ng of BbLDH, 0.5 mM NADH, 2.4 mM pyruvate and with/without 3 mM FBP. The conversion of lactate to pyruvate activity was measured at 37°C in sodium bicarbonate buffer (pH 7.0) containing 100 ng of BbLDH, 1 mM NAD^+, 0–300 mM sodium L-lactate, with/without 3 mM FBP. The kinetic parameters of BbLDH were determined using 0–6.0 mM pyruvate, 0–1.0 mM NADH, 0–2.0 mM NAD^+, 50 mM Tris-HCl buffer, pH 5.0–10.0, or reaction temperature of 25°C, 30°C, and 37°C. All reactions were performed in 96-well plates with a final volume of 200 µL per well.
All experiments were repeated at least twice. The amount of NADH produced or consumed was extrapolated from the NADH standard curve and plotted in GraphPad Prism 10 (GraphPad Software, La Jolla, CA, USA) using Allosteric Sigmoidal mode to obtain the Vmax and Km values. Lineweaver–Burk plots were generated using the mean reciprocal values of substrates and velocities obtained from the inhibition studies.

BB_0087 (BbLDH) = target: T2, BB_0087 (BbLDH) (Borreliella burgdorferi, UniProt O51114); test: Lactate dehydrogenase activity assay kit, NADH generation from lactate by recombinant BB_0087; assay type: biochemical; settings: 100 µM gossypol; 50 ng purified recombinant protein
T2 construct: we expressed and purified a full-length N-terminal His- and FLAG-tagged BB_0087 recombinant protein (rBB_0087); 10xHis (N); FLAG (N); made in house; host or cells: E. coli Rosetta-gami 2 (DE3)
Protocol: To establish the LDH activity of BbLDH, we first used a commercial lactate dehydrogenase activity assay kit (Sigma Aldrich, St. Louis, MO) to measure the ability of BbLDH to reduce NAD to NADH following the manufacturer’s instruction. Commercial LDH inhibitor gossypol (catalog # G8761, Sigma Aldrich) was dissolved in DMSO at a stock concentration of 100 mM. A concentration of 1 µg/µL of recombinant wild-type or H178A BbLDH stocks was diluted 1:20 in the LDH assay buffer to a final working volume of 400 µL per well. A 100 µM of gossypol or DMSO was added to selected wild-type BbLDH wells to determine the inhibitory effect of gossypol on BbLDH activity. Reactions were set up in triplicate wells along with NADH standards. The LDH activity was calculated using the formulation provided by the manufacturer.

T1 sequence (O51114 whole entry): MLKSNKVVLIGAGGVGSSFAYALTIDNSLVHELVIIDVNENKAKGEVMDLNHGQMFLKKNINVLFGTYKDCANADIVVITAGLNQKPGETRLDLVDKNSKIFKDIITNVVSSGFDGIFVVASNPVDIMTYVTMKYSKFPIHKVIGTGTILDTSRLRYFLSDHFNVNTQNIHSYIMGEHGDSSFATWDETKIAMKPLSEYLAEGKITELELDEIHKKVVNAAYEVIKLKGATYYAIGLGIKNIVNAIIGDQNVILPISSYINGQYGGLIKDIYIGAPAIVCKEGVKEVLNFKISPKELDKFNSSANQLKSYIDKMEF
T2 sequence (O51114 whole entry): as above

| SMILES | reduction in LDH activity (hit cutoff) (BbLDH [1]) | Ki (BbLDH [2]) | type of inhibition for pyruvate substrate (Lineweaver–Burk plots) (BbLDH [2]) | concentration at which growth inhibition of HeLa cells begins (HeLa cells) | concentration at which toxicity to TIGKs begins ([3]; crystal violet, non-cancerous cell line) | concentration at which inhibitory effect on growth was observed (B. burgdorferi) | Ki (BbLDH [2]; varying pyruvate as substrate, 0.5 mM NADH, 3 mM FBP, pH 7.0, 37°C, Fig. 5, read-out: Ki) | concentration at which toxicity to TIGKs begins ([3]; human) | Ki (BbLDH [4]) | LDH activity of BB_0087 (NADH generated from lactate) upon treatment (BB_0087 (BbLDH)) |
| --- | --- | --- | --- | --- | --- | --- | --- | --- | --- | --- |
| COc1ccc2c(c1)O[C@H]1c3ccc(O)cc3OC[C@@H]21 (stereo in doubt) [compound 350085, Medicarpin] | ≥ 75% | 205 µM | competitive inhibitors | 5 µM | 20 µM |  |  |  |  |  |
| CCC(C)(O)C(=O)OC1C(=O)OC2CC3C(C)=CC(O)C(O)C3(C)C3C4(O)OCC23C1C(C)C4O (stereo not drawn) [compound 14975] |  | 66 µM | competitive inhibitors |  |  |  |  |  |  |  |
| COc1c2occc2cc2ccc(=O)oc12 [compound 45923, Methoxsalen] | ≥ 75% |  | competitive inhibitors | 10 µM |  | 100 µM | 54 µM | > 50 µM |  |  |
| CCC(C)c1occ2c(O)c(C(=O)O)c(=O)cc-2c1C (stereo not drawn) [compound 114344] | ≥ 75% | 349 µM | competitive inhibitors |  |  |  |  |  |  |  |
| Cc1cc2c(C(C)C)c(O)c(O)c(C=O)c2c(O)c1-c1c(C)cc2c(C(C)C)c(O)c(O)c(C=O)c2c1O [gossypol] |  | 36 µM | uncompetitive inhibition |  |  | 100 µM |  |  | 13 µM | completely abolished |
